Literature values in patent US8598236B2, “Emulsion system derived from engkabang fat esters” (Universiti Putra Malaysia, priority 2009, dated 2013).

Details: purchased nonionic surfactants

Substance	HLB value
polyoxyethylene (20) sorbitan tri-oleate [Tween85]	11.0
Sorbitan mono-oleate [Span80]	4.3
sorbitan monolaurate [Span20]	8.6
